Data: ChEMBL document CHEMBL1201862, “PubChem BioAssay data set” (2004)
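Step 1: Grow cells in 96-well plates. Step 2: Expose to compound for 48 hours at 5 concentrations. Step 3: Interpolate endpoints linearly; if unreached, use highest concentration. Abbreviation: GI50, concentration required for 50% inhibition of growth.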 Active and inactive are the calls of the source. Cut-off read from the data, not from the text of the source: active = GI50 up to about 1.1 µM and inactive = higher.

Tests used:
Assay in all cases: inhibition of tumour cell growth, NCI panel, 48 h
CCRF-CEM = tested on: CCRF-CEM
Malme-3M = tested on: Malme-3M
OVCAR-8 = tested on: OVCAR-8
TK-10 = tested on: TK-10
A498 = tested on: A498
K562 = tested on: K562
NCI-H460 = tested on: NCI-H460
SK-OV-3 = tested on: SK-OV-3
DMS-273 = tested on: DMS-273
SK-MEL-2 = tested on: SK-MEL-2
NCI-H522 = tested on: NCI-H522
A549 = tested on: A549
HCT-15 = tested on: HCT-15
MOLT-4 = tested on: MOLT-4
SN12C = tested on: SN12C

SMILES	GI50 (CCRF-CEM)	GI50 (Malme-3M)	GI50 (OVCAR-8)	GI50 (TK-10)	GI50 (A498)	GI50 (K562)	GI50 (NCI-H460)	GI50 (SK-OV-3)	GI50 (DMS-273)	GI50 (SK-MEL-2)	GI50 (NCI-H522)	GI50 (A549)	GI50 (HCT-15) [µM]	GI50 (MOLT-4)	GI50 (SN12C)
C/C=C/C=C/[C@H]1Cc2cc(O)cc(O)c2O1	30.8 µM (inactive)	52.5 µM (inactive)	60.4 µM (inactive)	> 100 µM (inactive)	> 100 µM (inactive)	37.2 µM (inactive)	44.1 µM (inactive)	> 100 µM (inactive)	28.9 µM (inactive)	> 100 µM (inactive)	36.6 µM (inactive)	70 µM (inactive)	84.9	31.8 µM (inactive)	55.3 µM (inactive)
O=C1N=C(Nc2ccccc2Cl)SC1C(=O)Nc1ccc([N+](=O)[O-])cc1[N+](=O)[O-] (stereo not drawn)	> 100 µM (inactive)	> 100 µM (inactive)	> 100 µM (inactive)	51.6 µM (inactive)	> 100 µM (inactive)	> 100 µM (inactive)	> 100 µM (inactive)	> 100 µM (inactive)	> 100 µM (inactive)	> 100 µM (inactive)	> 100 µM (inactive)	> 100 µM (inactive)	> 100	> 100 µM (inactive)	> 100 µM (inactive)
CCOc1ccc(NCC2CC/C(=C\c3ccccc3OC)C2=O)cc1 (stereo not drawn)	2.49 µM (inactive)	14.4 µM (inactive)	5.18 µM (inactive)	13.8 µM (inactive)	19.6 µM (inactive)	2.7 µM (inactive)		17 µM (inactive)	2.58 µM (inactive)	20.3 µM (inactive)	1.94 µM (inactive)	17.9 µM (inactive)	3.09	2.75 µM (inactive)	7.1 µM (inactive)
COc1ccc(/N=N/c2c(N)nn(C)c2N)cc1	92.7 µM (inactive)	> 100 µM (inactive)	> 100 µM (inactive)	> 100 µM (inactive)	> 100 µM (inactive)	> 100 µM (inactive)	> 100 µM (inactive)	> 100 µM (inactive)	> 100 µM (inactive)	> 100 µM (inactive)	> 100 µM (inactive)	> 100 µM (inactive)	> 100	82.8 µM (inactive)	> 100 µM (inactive)
O=C(/C=C/c1ccccc1)c1ccc(NCc2nc3ccccc3[nH]2)cc1	2.48 µM (inactive)	13.3 µM (inactive)	3.49 µM (inactive)	11.7 µM (inactive)	5.24 µM (inactive)	2.51 µM (inactive)	3.27 µM (inactive)	6.37 µM (inactive)	4.5 µM (inactive)	12.7 µM (inactive)	4.14 µM (inactive)	4.35 µM (inactive)	4.11	3.56 µM (inactive)	5.33 µM (inactive)
O=C1[C@H]2ON(c3ccccc3)C(c3ccc(Cl)cc3)[C@H]2C(=O)N1c1ccc(Cc2ccc(N3C(=O)[C@@H]4ON(c5ccccc5)C(c5ccc(Cl)cc5)[C@@H]4C3=O)cc2)cc1 (stereo partly drawn)	> 100 µM (inactive)	40.7 µM (inactive)	> 100 µM (inactive)	> 100 µM (inactive)	> 100 µM (inactive)	> 100 µM (inactive)	> 100 µM (inactive)	> 100 µM (inactive)	> 100 µM (inactive)	> 100 µM (inactive)	> 100 µM (inactive)	> 100 µM (inactive)	> 100	> 100 µM (inactive)	> 100 µM (inactive)
CC(=O)NCc1c(C(N)=O)ncn1Cc1ccccc1	> 100 µM (inactive)		> 100 µM (inactive)	> 100 µM (inactive)	> 100 µM (inactive)	> 100 µM (inactive)	> 100 µM (inactive)	> 100 µM (inactive)	> 100 µM (inactive)			> 100 µM (inactive)	> 100	> 100 µM (inactive)	> 100 µM (inactive)
CCCC(Sc1ccccc1)P(=O)(c1ccccc1)c1ccccc1 (stereo not drawn)	29.9 µM (inactive)		36.2 µM (inactive)	40 µM (inactive)	28.3 µM (inactive)	29.9 µM (inactive)	29.8 µM (inactive)	22.7 µM (inactive)	36.6 µM (inactive)		31.5 µM (inactive)	28.8 µM (inactive)		20.6 µM (inactive)	43.5 µM (inactive)
COC(=O)c1nc(C(=O)OC)c2c([nH]c3ccccc32)c1C(=O)OC	71.1 µM (inactive)	> 100 µM (inactive)	> 100 µM (inactive)	> 100 µM (inactive)	> 100 µM (inactive)		46.1 µM (inactive)		60 µM (inactive)	> 100 µM (inactive)	> 10 µM (inactive)	> 100 µM (inactive)	53.5	82.6 µM (inactive)	> 100 µM (inactive)
Cn1c2cc(O)cc(O)c2c(=O)c2c([N+](=O)[O-])cccc21	> 100 µM (inactive)	> 100 µM (inactive)	> 100 µM (inactive)	> 100 µM (inactive)	> 100 µM (inactive)	> 100 µM (inactive)	> 100 µM (inactive)	> 100 µM (inactive)	> 100 µM (inactive)	> 100 µM (inactive)	> 100 µM (inactive)	> 100 µM (inactive)	> 100	> 100 µM (inactive)	> 100 µM (inactive)
[O-][S+]1Cc2ccccc2CS1 (stereo not drawn)		13.6 µM (inactive)	15 µM (inactive)	21.8 µM (inactive)	76.6 µM (inactive)	17.9 µM (inactive)	22.7 µM (inactive)	52.8 µM (inactive)	14.2 µM (inactive)		6.81 µM (inactive)	93.8 µM (inactive)	34.9	15.4 µM (inactive)	14 µM (inactive)
CC(C)CS(=O)(=O)/C(=C(\c1ccc(Br)cc1)S(=O)(=O)CC(C)C)c1ccc(Br)cc1	> 100 µM (inactive)	> 100 µM (inactive)	> 100 µM (inactive)	> 100 µM (inactive)	16.3 µM (inactive)	> 100 µM (inactive)	> 100 µM (inactive)		> 100 µM (inactive)	> 100 µM (inactive)	> 100 µM (inactive)	> 100 µM (inactive)	> 100	> 100 µM (inactive)	> 100 µM (inactive)
COc1cc2c(cc1OC)C(C(CBr)CBr)N(C1CCCC1)CC2 (stereo not drawn)	> 100 µM (inactive)	> 100 µM (inactive)	> 100 µM (inactive)	> 100 µM (inactive)	> 100 µM (inactive)	> 100 µM (inactive)	> 100 µM (inactive)	> 100 µM (inactive)	> 100 µM (inactive)	> 100 µM (inactive)	> 100 µM (inactive)	> 100 µM (inactive)	> 100	> 100 µM (inactive)	
CCOC(=O)/C(I)=C/c1cc(OC)c(OC)c(OC)c1	1.93 µM (inactive)	8.89 µM (inactive)	6.37 µM (inactive)	19.3 µM (inactive)	25.6 µM (inactive)	3.86 µM (inactive)	40.6 µM (inactive)	26.9 µM (inactive)	6.68 µM (inactive)	49 µM (inactive)	4.14 µM (inactive)	4.89 µM (inactive)	3.9	7.01 µM (inactive)	4.62 µM (inactive)
Cc1ccc(C)c(NC(=O)CC/C(=N\NC(=O)C(=O)NN)C(C)C(=O)c2ccc(O)cc2)c1 (stereo not drawn)	> 100 µM (inactive)	> 100 µM (inactive)		> 100 µM (inactive)	> 100 µM (inactive)	> 100 µM (inactive)	> 100 µM (inactive)	> 100 µM (inactive)	> 100 µM (inactive)	> 100 µM (inactive)	> 100 µM (inactive)	> 100 µM (inactive)	> 100	> 100 µM (inactive)	> 100 µM (inactive)
CC(=O)Nc1ccc(S(=O)(=O)Nc2cnc3ccccc3n2)cc1	> 100 µM (inactive)	> 100 µM (inactive)	> 100 µM (inactive)	> 100 µM (inactive)	> 100 µM (inactive)	> 100 µM (inactive)	> 100 µM (inactive)	> 100 µM (inactive)	> 100 µM (inactive)	> 100 µM (inactive)	> 100 µM (inactive)	> 100 µM (inactive)	> 100	> 100 µM (inactive)	> 100 µM (inactive)
CCCCCC(/C=C/[C@@H]1[C@H]2CC(=O)O[C@H]2C[C@H]1N1CCOCC1)OC1CCCO1 (stereo partly drawn)	> 100 µM (inactive)	> 100 µM (inactive)	> 100 µM (inactive)	> 100 µM (inactive)	> 100 µM (inactive)	> 100 µM (inactive)	> 100 µM (inactive)	> 100 µM (inactive)	> 100 µM (inactive)	> 100 µM (inactive)	> 100 µM (inactive)	> 100 µM (inactive)	> 100	> 100 µM (inactive)	
O=C(C#Cc1cnc(O)nc1O)c1ccccc1	1.97 µM (inactive)	3.34 µM (inactive)	10.5 µM (inactive)	13.8 µM (inactive)	15.5 µM (inactive)	2.98 µM (inactive)	14.1 µM (inactive)	27.3 µM (inactive)	14.9 µM (inactive)	12.1 µM (inactive)		24.7 µM (inactive)	12.3	2.48 µM (inactive)	4.37 µM (inactive)
COc1ccc(/C=C2\CCC(CCN(C)C)(C3=CCCC3)C2=O)cc1Br (stereo not drawn)	2.13 µM (inactive)	13.8 µM (inactive)	9.08 µM (inactive)	6.93 µM (inactive)	8.95 µM (inactive)	2.58 µM (inactive)	10.1 µM (inactive)		3.78 µM (inactive)	10 µM (inactive)	2.06 µM (inactive)	8.32 µM (inactive)	4.54	2.7 µM (inactive)	9.95 µM (inactive)
